# From US20080085884A1, “Melanin Concentrating Hormone Receptor-1 Antagonist Pyridinones” (Pfizer Inc, priority 2006, published 2008)
# Structures can show the parent of a compound that is named as a salt. Where two headings read alike, the source gives them in different places.
# Biological target: T1, human MCHR1 (Homo sapiens, UniProt Q99705)
# T1 construct: host or cells: CHO
# Assay: Cyclic AMP assay (MCHR-1 functional antagonism)
# Assay type: cell-based
# Details: CHO cells stably expressing human MCHR1, cAMP accumulation with 25 uM forskolin and 0.2 nM MCH, 90 min, Ki from IC50 by Cheng-Prusoff
# Procedure: CHO cell lines stably expressing the human MCHR1 (Euroscreen, Brussels, Belgium) were maintained in DMEM containing Glutamax (Invitrogen, Carlsbad, Calif.), 10% FBS, 400 ug/ml Geneticin.
# Cyclic AMP assays. CHO cells stably expressing the human MCHR1 receptors were collected and resuspended at a density of 4.0×10^6 cells/ml in F12 (Hams) media and seeded (20,000 cells per well) into 384-well, solid white Greiner assay plates. […] Cells were incubated at 37° C./5% CO2 for 90 minutes and cAMP accumulation subsequently determined by DiscoveRx Hithunter c-AMP II Assay kit (GE Healthcare, Buckinghamshire, UK) in accordance with manufactures instructions. Luminescence was measured on a LEADseaker imaging system (GE Healthcare, Buckinghamshire, UK). IC50 values were calculated from dose-response data fit using an in-house computer graphics and statistics program.
# T1 sequence (Q99705 whole entry): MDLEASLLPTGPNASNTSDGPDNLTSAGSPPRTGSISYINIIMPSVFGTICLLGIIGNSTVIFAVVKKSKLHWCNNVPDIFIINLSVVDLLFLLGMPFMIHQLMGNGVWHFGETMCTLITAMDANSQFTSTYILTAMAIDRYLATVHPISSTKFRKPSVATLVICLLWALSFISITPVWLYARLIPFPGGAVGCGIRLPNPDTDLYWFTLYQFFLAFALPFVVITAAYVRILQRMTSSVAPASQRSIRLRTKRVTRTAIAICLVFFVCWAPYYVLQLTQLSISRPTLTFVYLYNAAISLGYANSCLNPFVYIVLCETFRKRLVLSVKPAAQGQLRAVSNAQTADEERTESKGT
Compound,Ki (read-out: MCHR-1 functional Ki),Ki (MCHR-1 functional Ki (nM))
"CN(C)C(=O)C1CCN(c2ccc(-n3ccc(OCc4ccccc4)cc3=O)cn2)C1 (racemic) [Example 25, 1-[4-(Benzyloxy)-2-oxo-2H-1,3′-bipyridin-6′-yl]-N,N-dimethylpyrrolidine-3-carboxamide]",80.9 nM,–
"CN(C)C(=O)C1CCN(c2ccc(-n3ccc(OCc4ccccc4)cc3=O)cn2)C1 (single isomer, unassigned) [Example 25a, 1-[4-(Benzyloxy)-2-oxo-2H-1,3′-bipyridin-6′-yl]-N,N-dimethylpyrrolidine-3-carboxamide]",71.1 nM,–
"CN(C)C(=O)C1CCN(c2ccc(-n3ccc(OCc4ccccc4)cc3=O)cn2)C1 (single isomer, unassigned) [Example 25b, 1-[4-(Benzyloxy)-2-oxo-2H-1,3′-bipyridin-6′-yl]-N,N-dimethylpyrrolidine-3-carboxamide]",69.6 nM,–
"O=c1cc(OCc2ccccc2)ccn1-c1ccc(N2CCNCC2)nc1 [Example 2, 4-(Benzyloxy)-6′-piperazin-1-yl-2H-1,3′-bipyridin-2-one]",89.9 nM,–
"CC(C)(C)OC(=O)N1C[C@@H]2CN(c3ccc(-n4ccc(OCc5ccccc5)cc4=O)cn3)C[C@@H]2C1 [Example 4, tert-Butyl (3aR,6aS)-5-[4-(benzyloxy)-2-oxo-2H-1,3′-bipyridin-6′-yl]hexahydropyrrolo[3,4-c]pyrrole-2(1H)-carboxylate]",1950 nM,–
"CN(C)C1CCN(c2ccc(-n3ccc(OCc4ccccc4)cc3=O)cn2)CC1 [Example 5, 4-(Benzyloxy)-6′-[4-(dimethylamino)piperidin-1-yl]-2H-1,3′-bipyridin-2-one]",111 nM,–
"CN1CCN(c2ccc(-n3ccc(OCc4ccccc4)cc3=O)cn2)CC1 [Example 6, 4-(Benzyloxy)-6′-(4-methylpiperazin-1-yl)-2H-1,3′-bipyridin-2-one]",163 nM,–
"CCN1CCN(c2ccc(-n3ccc(OCc4ccccc4)cc3=O)cn2)CC1 [Example 7, 4-(Benzyloxy)-6′-(4-ethylpiperazin-1-yl)-2H-1,3′-bipyridin-2-one]",87.1 nM,–
"O=c1cc(OCc2ccccc2)ccn1-c1ccc(N2CC[C@@H](O)C2)nc1 [Example 11, 4-(Benzyloxy)-6′-[(3R)-3hydroxypyrrolidin-1-yl]-2H-1,3′-bipyridin-2-one]",97.2 nM,–
"O=c1cc(OCc2ccccc2)ccn1-c1ccc(N2CC[C@H](O)C2)nc1 [Example 16, 4-(benzyloxy)-6′-[(3S)-3-hydroxypyrrolidin-1-yl]-2H-1,3′-bipyridin-2-one]",133 nM,–
O=C1CCCN1[C@H]1CCN(c2ccc(-n3ccc(OCc4ccccc4)cc3=O)cn2)C1 [Example 27],71.4 nM,–
"O=C1CCN(c2ccc(-n3ccc(OCc4ccccc4)cc3=O)cn2)C1 [Example 30, 4-(Benzyloxy)-6′-(3-oxopyrrolidin-1-yl)-2H-1,3′-bipyridin-2-one]",2470 nM,–
"O=c1cc(OCc2ccccc2)ccn1-c1ccc(N2CCCC2)nc1 [Example 34, 4-(benzyloxy)-6′-pyrrolidin-1-yl-2H-1,3′-bipyridin-2-one]",54.3 nM,–
NC1CN(c2ccc(-n3ccc(OCc4ccc(F)cc4)cc3=O)cn2)C1 [Example 35],232 nM,–
CO[C@H]1CCN(c2ccc(-n3ccc(OCc4ccccc4)cc3=O)cn2)C1 [Example 36],75.5 nM,–
CCOC(=O)N[C@@H]1CCN(c2ccc(-n3ccc(OCc4ccccc4)cc3=O)cn2)C1 [Example 43],364 nM,–
CC1(O)CCN(c2ccc(-n3ccc(OCc4ccccc4)cc3=O)cn2)CC1 [Example 44],113 nM,–
CC(C)C1(O)CCN(c2ccc(-n3ccc(OCc4ccccc4)cc3=O)cn2)C1 (centres unmarked) [Example 45],270 nM,–
O=c1cc(OCc2ccccc2)ccn1-c1ccc(N2CCC(O)CC2)nc1 [Example 46],212 nM,–
COC1CCN(c2ccc(-n3ccc(OCc4ccccc4)cc3=O)cn2)CC1 [Example 47],57.8 nM,–
COC(=O)N1CCN(c2ccc(-n3ccc(OCc4ccccc4)cc3=O)cn2)CC1 [Example 48],705 nM,–
N[C@@H]1CCN(c2ccc(-n3ccc(OCc4ccccc4)cc3=O)cn2)C1 [Example 54],–,5.91 nM

# Now from value to compound, other results behind:
Ki (read-out: MCHR-1 functional Ki),Compound,Ki (MCHR-1 functional Ki (nM))
15.3 nM,"CC1(N)CCN(c2ccc(-n3ccc(OCc4ccccc4)cc3=O)cn2)C1 (single isomer, unassigned) [Example 17a, 6′-(3-Amino-3-methylpyrrolidin-1-yl)-4-(benzyloxy)-2H-1,3′-bipyridin-2-one]",–
38.1 nM,"CC1(N)CCN(c2ccc(-n3ccc(OCc4ccccc4)cc3=O)cn2)C1 (single isomer, unassigned) [Example 17b, 6′-(3-Amino-3-methylpyrrolidin-1-yl)-4-(benzyloxy)-2H-1,3′-bipyridin-2-one]",–
8.86 nM,"CNC1(C)CCN(c2ccc(-n3ccc(OCc4ccccc4)cc3=O)cn2)C1 (single isomer, unassigned) [Example 18a, 4-(Benzyloxy)-6′-[3-methyl-3-(methylamino)pyrrolidin-1-yl]-2H-1,3′-bipyridin-2-one]",–
18.3 nM,"CNC1(C)CCN(c2ccc(-n3ccc(OCc4ccccc4)cc3=O)cn2)C1 (single isomer, unassigned) [Example 18b, 4-(Benzyloxy)-6′-[3-methyl-3-(methylamino)pyrrolidin-1-yl]-2H-1,3′-bipyridin-2-one]",–
47.7 nM,"CC(=O)N1CCN(c2ccc(-n3ccc(OCc4ccccc4)cc3=O)cn2)CC1 [Example 1, 6′-(4-Acetylpiperazin-1-yl)-4-(benzyloxy)-2H-1,3′-bipyridin-2-one]",–
10.1 nM,"CN1C[C@@H]2CN(c3ccc(-n4ccc(OCc5ccccc5)cc4=O)cn3)C[C@@H]2C1 [Example 3, 4-(Benzyloxy)-6′-[(3aR,6aS)-5-methylhexahydropyrrolo[3,4-c]pyrrol-2(1H)-yl]-2H-1,3′-bipyridin-2-one]",–
8.67 nM,"O=c1cc(OCc2ccccc2)ccn1-c1ccc(N2C[C@H]3CNC[C@H]3C2)nc1 [Example 8, 4-(Benzyloxy)-6′-[(3aR,6aS)-hexahydropyrrolo[3,4-c]pyrrol-2(1H)-yl]-2H-1,3′-bipyridin-2-one dihydrochloride]",–
42.8 nM,"O=c1cc(OCc2ccc(Cl)cc2)ccn1-c1ccc(N2CC[C@@H](O)C2)nc1 [Example 10, 4-[(4-Chlorobenzyl)oxy]-6′-[(3R)-3-hydroxypyrrolidin-1-yl]-2H-1,3′-bipyridin-2-one]",–
9.98 nM,"CN(C(=O)OC(C)(C)C)[C@H]1CCN(c2ccc(-n3ccc(OCc4ccccc4)cc3=O)cn2)C1 [Example 12, tert-Butyl {(3S)-1-[4-(benzyloxy)-2-oxo-2H-1,3′-bipyridin-6′-yl]pyrrolidin-3-yl}methyl carbamate]",–
4.88 nM,"CN[C@H]1CCN(c2ccc(-n3ccc(OCc4ccccc4)cc3=O)cn2)C1 [Example 13, 4-(Benzyloxy)-6′-[(3S)-3-(methylamino)pyrrolidin-1-yl]-2H-1,3′-bipyridin-2-one dihydrochloride]",–
3.62 nM,"CN[C@@H]1CCN(c2ccc(-n3ccc(OCc4ccccc4)cc3=O)cn2)C1 [Example 15, 4-(benzyloxy)-6′-[(3R)-3-(methylamino)pyrrolidin-1-yl]-2H-1,3′-bipyridin-2-one dihydrochloride]",–
6.78 nM,"CCN[C@@H]1CCN(c2ccc(-n3ccc(OCc4ccccc4)cc3=O)cn2)C1 [Example 19, 4-(Benzyloxy)-6′-[(3R)-3-(ethylamino)pyrrolidin-1-yl]-2H-1,3′-bipyridin-2-one]",–
15.2 nM,"CC(=O)N(C)[C@H]1CCN(c2ccc(-n3ccc(OCc4ccccc4)cc3=O)cn2)C1 [Example 20, N-{(3S)-1-[4-(Benzyloxy)-2-oxo-2H-1,3′-bipyridin-6′-yl]pyrrolidin-3-yl}-N-methylacetamide]",–
15.7 nM,"CCN(C(=O)OC(C)(C)C)[C@@H]1CCN(c2ccc(-n3ccc(OCc4ccccc4)cc3=O)cn2)C1 [Example 23a, tert-Butyl {(3R)-1-[4-(benzyloxy)-2-oxo-2H-1,3′-bipyridin-6′-yl]pyrrolidin-3-yl}ethylcarbamate]",–
6.64 nM,"CCN1C[C@@H]2CN(c3ccc(-n4ccc(OCc5ccccc5)cc4=O)cn3)C[C@@H]2C1 [Example 26, 4-(Benzyloxy)-6′-[(3aR,6aS)-5-ethylhexahydropyrrolo[3,4-c]pyrrol-2(1H)-yl]-2H-1,3′-bipyridin-2-one]",–
23.7 nM,"O=c1cc(OCc2ccc(Cl)cc2)ccn1-c1ccc(N2CC[C@H](O)C2)nc1 [Example 29, 4-[(4-Chlorobenzyl)oxy]-6′-[(3S)-3-hydroxypyrrolidin-1-yl]-2H-1,3′-bipyridin-2-one]",–
18.3 nM,"CN(C(=O)OC(C)(C)C)[C@H]1CCN(c2ccc(-n3ccc(CCc4ccccc4)cc3=O)cn2)C1 [Example 32, tert-Butyl methyl{(3S)-1-[2-oxo-4-(2-phenylethyl)-2H-1,3′-bipyridin-6′-yl]pyrrolidin-3-yl}-carbamate]",–
19.4 nM,"CN[C@@H]1CCN(c2ccc(-n3ccc(OCc4ccccc4)cc3=O)nc2)C1 [Example 33, 4-(Benzyloxy)-5′-[(3R)-3-(methylamino)pyrrolidin-1-yl]-2H-1,2′-bipyridin-2-one]",–
42.7 nM,COC1CCN(c2ccc(-n3ccc(OCc4ccccc4)cc3=O)cn2)C1 (centres unmarked) [Example 37],–
42 nM,CCO[C@@H]1CCN(c2ccc(-n3ccc(OCc4ccccc4)cc3=O)cn2)C1 [Example 39],–
34.1 nM,CCO[C@H]1CCN(c2ccc(-n3ccc(OCc4ccccc4)cc3=O)cn2)C1 [Example 40],–
3.66 nM,"N[C@H]1CCN(c2ccc(-n3ccc(OCc4ccccc4)cc3=O)cn2)C1 [Example 55, 6′-[(3S)-3-aminopyrrolidin-1-yl]-4-(benzyloxy)-2H-1,3′-bipyridin-2-one]",–
